The structures appear in SMILES notation.

This note sets out measurements from US8859573B2, “Pyrimidinone and pyridinone compounds for use in the treatment of diseases or conditions mediated by Lp-PLA2” (Glaxo Group Limited, priority 2010, dated 2014).

In the assay the test system is proinflammatory (M1) and anti-inflammatory (M2) markers. As to the kind of experiment: Ex vivo analysis of M1 and M2 markers in macrophages of EAE animals (realtime PCR). Also noted: species or system rats. To be noted: EAE by MBP immunization, splenic macrophages day 13 and CNS infiltrating macrophages. How it is done: A further study was carried out to study the impact of Lp-PLA2 inhibitors on modulating M1/M2 imbalance. In this study, rats were induced to develop experimental autoimmune encephalomyelitis (EAE) by immunization with myelin basic protein (MBP) antigen and treated with a known Lp-PLA2 inhibitor: 5-((9-Methoxy-4-oxo-6,7-dihydro-4H-pyrimido[6,1-a]isoquinolin-2-yl)oxy)-2-(3-(trifluoromethyl)phenoxy)benzonitrile (See PCT application no. PCT/CN2011/001597) For preventive treatment, compound administration started at day 0 whereas it started at 7 day in therapeutic treatment. Rats were subsequently monitored for symptoms of EAE. Rats were immunized with MBP to develop EAE and symptoms were monitored daily. Plasma Lp-PLA2 activity and LysoPC concentration were determined at different time points through the course of EAE.
Ex vivo analysis of proinflammatory (M1) and anti-inflammatory (M2) markers in control and compound treated EAE […]. Splenic macrophages were harvested at day 13 post MBP-immunization and assayed for expression of a variety of markers by realtime PCR. CNS infiltrating cells were harvested and macrophages were analyzed for expression of M1 and M2 markers by realtime PCR.

In the case of `COc1ccc2c(c1)CCn1c-2cc(Oc2ccc(Oc3cccc(C(F)(F)F)c3)c(C#N)c2)nc1=O` [5-((9-Methoxy-4-oxo-6,7-dihydro-4H-pyrimido[6,1-a]isoquinolin-2-yl)oxy)-2-(3-(trifluoromethyl)phenoxy)benzonitrile], the M1 markers result is on record as “decrease” and the M2 markers entry is on record as “increase”.
